# Measurements from ChEMBL document CHEMBL3046274, “Toxicity of imidacloprid to developmental stages of Rhynchophorus ferrugineus (Curculionidae: Coleoptera): Laboratory and field tests” (Crop Prot, 2006).
# Experiments:
# Format in all cases: functional
# [1] = test system: Rhynchophorus ferrugineus; assay: Pesticidal activity against Rhynchophorus ferrugineus (red palm weevil) cocoon assessed as mortality at 1 ppm administered by dipping for 3 min measured at 18 hr post-treatment relative to control
# [2] = test system: Rhynchophorus ferrugineus; assay: Pesticidal activity against Rhynchophorus ferrugineus (red palm weevil) cocoon assessed as mortality at 2 ppm administered by dipping for 3 min measured at 18 hr post-treatment relative to control
# [3] = test system: Rhynchophorus ferrugineus; assay: Pesticidal activity against Rhynchophorus ferrugineus (red palm weevil) larvae assessed as mortality at 4 ppm, po at 114 hr post-treatment relative to control
# [4] = test system: Rhynchophorus ferrugineus; assay: Pesticidal activity against Rhynchophorus ferrugineus (red palm weevil) larvae assessed as mortality at 0.5 ppm, po at 90 hr post-treatment relative to control
# [5] = test system: Rhynchophorus ferrugineus; assay: Pesticidal activity against Rhynchophorus ferrugineus (red palm weevil) larvae assessed as mortality at 1.5 ppm, po at 90 hr post-treatment relative to control
# [6] = test system: Rhynchophorus ferrugineus; assay: Pesticidal activity against Rhynchophorus ferrugineus (red palm weevil) larvae assessed as mortality at 2 ppm, po at 72 hr post-treatment relative to control
# [7] = test system: Rhynchophorus ferrugineus; assay: Pesticidal activity against Rhynchophorus ferrugineus (red palm weevil) larvae infested date palm trees assessed as mortality at 2.5 ml/l applied through soil-drench irrigation 1 week after infestation measured on day 20 post-treatment relative to control
# [8] = test system: Rhynchophorus ferrugineus; assay: Pesticidal activity against Rhynchophorus ferrugineus (red palm weevil) cocoon assessed as mortality at 0.5 ppm administered by dipping for 3 min measured at 90 hr post-treatment relative to control
# [9] = test system: Rhynchophorus ferrugineus; assay: Pesticidal activity against Rhynchophorus ferrugineus (red palm weevil) cocoon assessed as mortality at 2 ppm administered by dipping for 3 min measured at 90 hr post-treatment relative to control
# [10] = test system: Rhynchophorus ferrugineus; assay: Contact toxicity against Rhynchophorus ferrugineus (red palm weevil) adults assessed as time required for 50% mortality at 2.5 ml/l for 5 min
# [11] = test system: Rhynchophorus ferrugineus; assay: Contact toxicity against Rhynchophorus ferrugineus (red palm weevil) adults assessed as time required for 100% reversible knockdown at 2.5 ml/l for 5 min
# [12] = test system: Rhynchophorus ferrugineus; assay: Contact toxicity against Rhynchophorus ferrugineus (red palm weevil) adults assessed as time required for 50% reversible knockdown at 2.5 ml/l for 5 min
# [13] = test system: Rhynchophorus ferrugineus; assay: Contact toxicity against Rhynchophorus ferrugineus (red palm weevil) adults assessed as time required for 100% mortality at 1.5 ml/l for 2 min
# [14] = test system: Rhynchophorus ferrugineus; assay: Contact toxicity against Rhynchophorus ferrugineus (red palm weevil) adults assessed as time required for 100% reversible knockdown at 3.5 ml/l for 2 min
# [15] = test system: Rhynchophorus ferrugineus; assay: Contact toxicity against Rhynchophorus ferrugineus (red palm weevil) adults assessed as time required for 50% reversible knockdown at 2.5 ml/l for 2 min
# [16] = test system: Rhynchophorus ferrugineus; assay: Pesticidal activity against Rhynchophorus ferrugineus (red palm weevil) cocoon assessed as mortality at 0.5 ppm administered by dipping for 3 min measured at 72 hr post-treatment relative to control
# [17] = test system: Rhynchophorus ferrugineus; assay: Pesticidal activity against Rhynchophorus ferrugineus (red palm weevil) cocoon assessed as mortality at 1 ppm administered by dipping for 3 min measured at 48 hr post-treatment relative to control
# [18] = test system: Rhynchophorus ferrugineus; assay: Pesticidal activity against Rhynchophorus ferrugineus (red palm weevil) cocoon assessed as mortality at 4 ppm administered by dipping for 3 min measured at 48 hr post-treatment relative to control
# [19] = test system: Rhynchophorus ferrugineus; assay: Pesticidal activity against adult Rhynchophorus ferrugineus (red palm weevil) assessed as mortality at 1 ppm, po at 48 hr post-treatment relative to control
# [20] = test system: Rhynchophorus ferrugineus; assay: Pesticidal activity against adult Rhynchophorus ferrugineus (red palm weevil) assessed as mortality at 1.5 ppm, po at 48 hr post-treatment relative to control
# [21] = test system: Rhynchophorus ferrugineus; assay: Pesticidal activity against adult Rhynchophorus ferrugineus (red palm weevil) assessed as mortality at 2 ppm, po at 48 hr post-treatment relative to control
# [22] = test system: Rhynchophorus ferrugineus; assay: Pesticidal activity against adult Rhynchophorus ferrugineus (red palm weevil) assessed as mortality at 0.5 ppm, po at 24 hr post-treatment relative to control
# [23] = test system: Rhynchophorus ferrugineus; assay: Pesticidal activity against adult Rhynchophorus ferrugineus (red palm weevil) assessed as mortality at 1.5 ppm, po at 24 hr post-treatment relative to control
# [24] = test system: Rhynchophorus ferrugineus; assay: Pesticidal activity against adult Rhynchophorus ferrugineus (red palm weevil) assessed as mortality at 1.5 ppm, po at 18 hr post-treatment relative to control
# [25] = test system: Rhynchophorus ferrugineus; assay: Pesticidal activity against adult Rhynchophorus ferrugineus (red palm weevil) assessed as mortality at 2 ppm, po at 18 hr post-treatment relative to control
# [26] = test system: Rhynchophorus ferrugineus; assay: Pesticidal activity against Rhynchophorus ferrugineus (red palm weevil) larvae assessed as mortality at 100 ppm administered topically at 72 hr post-treatment
# [27] = test system: Rhynchophorus ferrugineus; assay: Pesticidal activity against Rhynchophorus ferrugineus (red palm weevil) larvae assessed as mortality at 1 ppm, po at 24 hr post-treatment relative to control
# [28] = test system: Rhynchophorus ferrugineus; assay: Pesticidal activity against Rhynchophorus ferrugineus (red palm weevil) larvae assessed as mortality at 300 ppm administered topically at 48 hr post-treatment
# [29] = test system: Rhynchophorus ferrugineus; assay: Pesticidal activity against Rhynchophorus ferrugineus (red palm weevil) larvae assessed as mortality at 1000 ppm administered topically at 48 hr post-treatment
# [30] = test system: Rhynchophorus ferrugineus; assay: Pesticidal activity against Rhynchophorus ferrugineus (red palm weevil) larvae assessed as mortality at 100 ppm administered topically at 36 hr post-treatment
# [31] = test system: Rhynchophorus ferrugineus; assay: Pesticidal activity against Rhynchophorus ferrugineus (red palm weevil) larvae assessed as mortality at 300 ppm administered topically at 36 hr post-treatment
# [32] = test system: Rhynchophorus ferrugineus; assay: Pesticidal activity against adult Rhynchophorus ferrugineus (red palm weevil) assessed as mortality at 500 ppm administered topically at 18 hr post-treatment
# [33] = test system: Rhynchophorus ferrugineus; assay: Pesticidal activity Rhynchophorus ferrugineus (red palm weevil) larvae assessed as time required after hatching for 100% mortality at 1.5 ml/l administered topically measured up to 14 days relative to control
# [34] = test system: Rhynchophorus ferrugineus; assay: Pesticidal activity against Rhynchophorus ferrugineus (red palm weevil) cocoons assessed as time required for total mortality at 1.5 ml/l administered by dipping for 30 secs
# [35] = test system: Rhynchophorus ferrugineus; assay: Pesticidal activity against Rhynchophorus ferrugineus (red palm weevil) cocoons assessed as time required for total mortality at 2.5 ml/l administered by dipping for 10 secs
# [36] = test system: Rhynchophorus ferrugineus; assay: Pesticidal activity against Rhynchophorus ferrugineus (red palm weevil) cocoons assessed as time required for total mortality at 3.5 ml/l administered by dipping for 5 secs
# [37] = test system: Rhynchophorus ferrugineus; assay: Pesticidal activity against adult Rhynchophorus ferrugineus (red palm weevil) assessed as mortality at 300 ppm administered topically at 72 hr post-treatment
# [38] = test system: Rhynchophorus ferrugineus; assay: Pesticidal activity against adult Rhynchophorus ferrugineus (red palm weevil) assessed as mortality at 500 ppm administered topically at 48 hr post-treatment
# [39] = test system: Rhynchophorus ferrugineus; assay: Pesticidal activity against Rhynchophorus ferrugineus (red palm weevil) larvae assessed as mortality at 1000 ppm administered topically at 36 hr post-treatment
# [40] = test system: Rhynchophorus ferrugineus; assay: Pesticidal activity against Rhynchophorus ferrugineus (red palm weevil) larvae assessed as mortality at 100 ppm administered topically at 18 hr post-treatment
# [41] = test system: Rhynchophorus ferrugineus; assay: Pesticidal activity against adult Rhynchophorus ferrugineus (red palm weevil) assessed as time required for 100% mortality at 1.5 ml/l administered topically
# [42] = test system: Rhynchophorus ferrugineus; assay: Pesticidal activity against adult Rhynchophorus ferrugineus (red palm weevil) assessed as time required for reversible knockdown at 2.5 ml/l administered topically
smiles,measurement,setting,value
O=[N+]([O-])/N=C1\NCCN1Cc1ccc(Cl)nc1 [IMIDACLOPRID],Activity,[1],0%
same,Activity,[2],0%
same,Activity,[3],100%
same,Activity,[4],66.7%
same,Activity,[5],100%
same,Activity,[6],100%
same,Activity,[7],100%
same,Activity,[8],38.9%
same,Activity,[9],72.2%
same,Time,[10],3.2 days
same,Time,[11],2.2 days
same,Time,[12],1.1 days
same,Time,[13],18 days
same,Time,[14],3.2 days
same,Time,[15],1.1 days
same,Activity,[16],0%
same,Activity,[17],0%
same,Activity,[18],44.4%
same,Activity,[19],38.9%
same,Activity,[20],73.2%
same,Activity,[21],100%
same,Activity,[22],0%
same,Activity,[23],72.2%
same,Activity,[24],72.2%
same,Activity,[25],100%
same,Activity,[26],0%
same,Activity,[27],0%
same,Activity,[28],0%
same,Activity,[29],100%
same,Activity,[30],0%
same,Activity,[31],0%
same,Activity,[32],66.7%
same,Time,[33],6 days
same,Time,[34],9.6 days
same,Time,[35],9.6 days
same,Time,[36],5.9 days
same,Activity,[37],100%
same,Activity,[38],72.2%
same,Activity,[39],72.2%
same,Activity,[40],0%
same,Time,[41],11.5 days
same,Time,[42],2 days
